Results on eight compounds are retold here after patent US11066433B2, “Pentaaza macrocyclic ring complexes possessing oral bioavailability” (Galera Labs, LLC, priority 2015, dated 2021).

One series has as its system inflammation. The following applies: ip, rat; cited from earlier work.
Series [1] relates to collagen-induced arthritis. The following applies: ip, rat collagen-induced arthritis; cited from earlier work.
The nature of series [2]: Oral bioavailability by intraduodenal (id) dosing of minipigs, oil formulations, versus iv parent. As to conditions: id 10 mg/kg, 10% by weight formulation, vs iv 1 mg/kg parent, AUC0-24 h. Format: in vivo, Gottingen minipig. How it is done:
Compounds were screened for oral bioavailability by injecting the formulated prodrugs directly into the duodenum (intraduodenal or id administration) of the minipig test subjects, thus bypassing the acidic environment of the stomach and thereby eliminating potentially misleading oral bioavailability results that could arise from alteration of the test article drug in the acid environment of the stomach.
The studies were conducted at Xenometrics LLC (Stillwell, Kans.) and the id bioavailability was determined using various axial ligand derivative complexes of GC4419, GC4444, GC4403 and GC4401.
Male Gottingen minipigs (4-5 mo old, 9-12 kg weight) were purchased from Marshall BioResources and housed at Xenometrics. […] The distal end was exteriorized with a reusable accessible hub (see surgical details below). During a recovery period of at least 2 weeks the minipigs were handled daily to acclimate them to the test procedures, i.e., id dosing and blood collections. For each experiment, each minipig received a test article drug dissolved or suspended in an excipient vehicle. […] All dosing experiments were conducted in fasted animals. Food was withdrawn from the minipigs 16 hours before dosing. The minipigs had ad libitum access to water. Dosed minipigs were allowed access to food 6 hour after dosing. The test article was administered at a dose of 10 mg/kg parent drug in 0.1 mL/kg vehicle (e.g., 1.5 mL in 15 kg minipig) as a bolus injection (˜1 minute) via the id cannula. The actual amount of total test article drug administered varied with the formula weight of the prodrug. An equal volume of excipient vehicle was used to flush the cannula after the test article was administered. Approximately 6 hours later, corn oil was used to flush the cannula. After approximately 24 hours post-dose, the catheter was flushed with sterile saline solution and capped. At the following time-points 0.25, 0.5, 1, 2, 4, 8, 24 and 48 hour post-injection, 2 mL blood samples were collected by cranial vena cava puncture (4 mL Sodium heparin Vacutainer, 20 g 1.5″ needle) after the skin surface was wiped with ethanol. The minipig was placed in a sling in a recumbent position without anesthesia for the collection of blood samples. The minipigs were never used more than once per 7 days for experimentation. The blood samples were kept on ice until processed for plasma. Blood samples were centrifuged at 1200×g for ten minutes at 4° C. and plasma samples were transferred to 96 well plate tubes, capped and stored at −20° C. until shipment on dry ice to the analytical laboratory used for measuring the concentration of drug in the plasma. The concentration of the parent manganese pentaaza macrocylic ring complex (independent of the composition of the axial ligands) was measured in plasma using a validated HPLC/MS/MS method that is linear between 50 ng/mL and 20,000 ng/mL.
Maisine 35-1 is chemically defined to be the monoglyceride glyceryl monolinoleate (NF) and was supplied by Gattefosse, SAINT-PRIEST Cedex, France. Labrasol (NF) is chemically defined to be caprylocaproyl polyoxyl-8 glycerides NF and was supplied by Gattefosse, SAINT-PRIEST Cedex, France. Labrafil M 1944 CS is chemically defined to be oleoyl polyoxyl-6 glycerides (NF), and is available from Gattefosse, SAINT-PRIEST Cedex, France. The dosing solutions were all prepared using a four place analytical balance by weighing all components of each formulation so that 10% by weight of each formulation contained the test article drug substance and 90% by weight of the oil used for that formulation.
The bioanalytical method which is used to quantitate the parent Mn(II) macrocyclic ring ligand structure in plasma utilizes HPLC with MS/MS detection and monitors the presence of the monocationic [monoformatoMn(pentaazamacrocycle)]+ complex. […]

Series [3] relates to radiation-induced oral mucositis. As to conditions: ip, hamster oral mucositis model; cited from earlier work.
Series [4] has as its system colon of rats subjected to an experimental model of colitis. The following applies: ip injection; cited from earlier work.
The test system of series [5] is lethal total body irradiation. The following applies: ip, adult mice; cited from earlier work.
Another series can be described thus: Solubility in water. Type of series: physicochemical.
The test system of a further series is oral mucositis. The following applies: iv infusion, head-and-neck cancer patients, chemoradiation therapy; cited from earlier work.
For series [6], the system named is VEGFr inhibitor-induced pulmonary disease. The following applies: ip, rat model; cited from earlier work.
A further series has as its system mouse cancer models. The following applies: ip; cited from earlier work.

For `[Cl-].[Cl-].[Mn+2].c1cc2nc(c1)CN[C@@H]1CCCC[C@H]1NCCN[C@@H]1CCCC[C@H]1NC2` [GC4403], the inflammation result with inflammation is “inhibit inflammation”. The joint disease entry in [1] is listed as “prevent joint disease”. The “Mini-Pig BioA” value in series [2] (base oil Capmul MCM) is on record as 9%. The radiation damage result in series [3] and in series [5] was “attenuate the radiation damage” each time. The “injury to the colon” value in series [4] is on record as “significantly reduce the injury to the colon”.
Turning to `[Cl][Mn][Cl].c1cc2nc(c1)CN[C@H]1CCCC[C@@H]1NCCN[C@H]1CCCC[C@@H]1NC2` [GC4419, reference compound], the solubility in water entry in “Solubility in water” was “relatively readily soluble in water”. Besides, in the series on oral mucositis, the oral mucositis entry is “reduce oral mucositis”. Besides, the pulmonary disease result in series [6] is reported as “attenuate VEGFr inhibitor-induced pulmonary disease”. For the same compound, the “anti-tumor activity of anti-metabolite and anti-mitotic agents” value in the series on mouse cancer models was “increase the anti-tumor activity”. Further, the “Mini-Pig BioA” value amounted to 9% in series [2] (base oil Capmul MCM); 7% in series [2] (base oil Labrafil M2125 CS); 8% in [2] (base oil Maisine 35-1); 8% in series [2] (base oil Miglyol 812 N); 9% in [2] (base oil Peceol).
For the compound “Manganese(II)bis-rac-Mandelato[(4aS,13aS,17aS,21aS)-1,2,3,4,4a,5,6,12,13,13a,14,15,16,17,17a,18,19,20,21,21a-Eicosahydro-11,7-nitrilo-7H-dibenzo[b,h][1,4,7,10] tetraazacycloheptadecine-κN5, κN13, κN18, κN21, κN22]- [GC4706]”, the “Mini-Pig BioA” value in [2] (base oil Capmul MCM) is 28%.
In the case of “Manganese(II)bis-Benzoato[(4aS,13aS,17aS,21aS)-1,2,3,4,4a,5,6,12,13,13a,14,15,16,17,17a,18,19,20,21,21a-Eicosahydro-11,7-nitrilo-7H-dibenzo[b,h][1,4,7,10] tetraazacycloheptadecine-κN5, κN13, κN18, κN21, κN22]- [GC4712]”, the “Mini-Pig BioA” value stood at 24% in series [2] (base oil Capmul MCM), 18% in series [2] (base oil Maisine 35-1) and 29% in series [2] (base oil Peceol).
In the case of “Manganese(II)bis-L-Lactato[(4aS,13aS,17aS,21aS)-1,2,3,4,4a,5,6,12,13,13a,14,15,16,17,17a,18,19,20,21,21a-Eicosahydro-11,7-nitrilo-7H-dibenzo[b,h][1,4,7,10] tetraazacycloheptadecine-κN5, κN13, κN18, κN21, κN22]- [GC4714]”, the “Mini-Pig BioA” value in series [2] (base oil Capmul MCM) worked out at 36%.
The same measure, in the same setting: the result for “Manganese(II)bis-dodecanoato[(4aS,13aS,17aS,21aS)-1,2,3,4,4a,5,6,12,13,13a,14,15,16,17,17a,18,19,20,21,21a-Eicosahydro-11,7-nitrilo-7H-dibenzo[b,h][1,4,7,10] tetraazacycloheptadecine-κN5, κN13, κN18, κN21, κN22]- [GC4708]” reads 12%; that for “Manganese(II)bis-cyclohexanebutyrato[(4aS,13aS,17aS,21 aS)-1,2,3,4,4a,5,6,12,13,13a, 14,15,16,17,17a,18,19,20,21,21a-Eicosahydro-11,7-nitrilo-7H-dibenzo[b,h][1,4,7,10]tetraazacyclo-heptadecine-κN5, κN13, κN18, κN21, κN22]- [GC4707]”, 9%; that for “Manganese(II)bis-L-valinato[(4aS,13aS,17aS,21aS)-1,2,3,4,4a,5,6,12,13,13a,14,15,16,17,17a,18,19,20,21,21a-Eicosahydro-11,7-nitrilo-7H-dibenzo[b,h][1,4,7,10] tetraazacyclo-heptadecine-κN5, κN13, κN18, κN21, κN22]- [GC4746]”, 13%.
